Experiment: in vitro
Conditions: human, hek293t cells

| SMILES | viability at 48 h, 25 µM |
| --- | --- |
| CC(=O)N(c1ccc(C)c(C)c1)c1nc(C=C(C#N)C(N)=O)cs1 [8-M16, 2-cyano-3-{2-[N-(3,4-dimethylphenyl)acetamido]-1,3-thiazol-4-yl}prop-2-enamide] | 85.9% |
| C=CC(=O)NC1CCC(F)(F)CC1F (centres unmarked) [1-E11, N-(2,4,4-trifluorocyclohexyl)prop-2-enamide] | 69.4% |
| C=CC(=O)N(Cc1ccccc1)Cc1ccccc1 [1-P04, N,N-dibenzylprop-2-enamide] | 60.4% |
| C=CC(=O)Nc1ccc(-c2nc3cc(C)ccc3o2)cc1 [1-D20, N-[4-(5-methyl-1,3-benzoxazol-2-yl)phenyl]prop-2-enamide] | 1.53% |
| C=CC(=O)NCC1CCN(Cc2ccccc2)CC1C (centres unmarked) [3-G20, N-[(1-benzyl-3-methylpiperidin-4-yl)methyl]prop-2-enamide] | 94.1% |
| C=CC(=O)N(Cc1cn(C)nc1-c1ccc(F)cc1)C1CC(C)C1 (centres unmarked) [1-P09, N-{[3-(4-fluorophenyl)-1-methyl-1H-pyrazol-4-yl]methyl}-N-(3-methylcyclobutyl)prop-2-enamide] | 64.1% |
| O=C(CCl)NCC1(c2ccccc2)CCC1 [4-O19, 2-chloro-N-[(1-phenylcyclobutyl)methyl]acetamide] | 0.976% |
| Cc1cccc(C=C(C#N)C(=O)NC(C)c2ccccc2)c1 (centres unmarked) [8-F18, 2-cyano-3-(3-methylphenyl)-N-(1-phenylethyl)prop-2-enamide] | 36.3% |
| C=CC(=O)N1CCC(C(=O)N2CCC(C(C)(C)O)CC2)CC1 [2-H14, 1-{4-[4-(2-hydroxypropan-2-yl)piperidine-1-carbonyl]piperidin-1-yl}prop-2-en-1-one] | 60.8% |
| COc1cc(C=C(C#N)C(=O)Nc2nccs2)cc(OC)c1O [8-M19, 2-cyano-3-(4-hydroxy-3,5-dimethoxyphenyl)-N-(1,3-thiazol-2-yl)prop-2-enamide] | 86.3% |
| C=CC(=O)N1CCn2c(nnc2C(F)(F)F)C1 [1-D18, 1-[3-(trifluoromethyl)-5H,6H,7H,8H-[1,2,4]triazolo[4,3-a]pyrazin-7-yl]prop-2-en-1-one] | 66.6% |
| CN1C=C(C(F)(F)F)C=CC1=C(C#N)C(=O)Nc1ccccc1F [8-H20, 2-cyano-N-(2-fluorophenyl)-2-[1-methyl-5-(trifluoromethyl)-1,2-dihydropyridin-2-ylidene]acetamide] | 90.1% |
| C=CC(=O)N(C)Cc1c(C)nn(C)c1Cl [1-C15, N-[(5-chloro-1,3-dimethyl-1H-pyrazol-4-yl)methyl]-N-methylprop-2-enamide] | 86.1% |
| C=CC(=O)NCc1cc(Cl)c2c(c1)OCCO2 [1-L05, N-[(8-chloro-2,3-dihydro-1,4-benzodioxin-6-yl)methyl]prop-2-enamide] | 112% |
| Cc1ccc(C(=O)C(C)Cl)cc1 (centres unmarked) [10-F20, 2-chloro-1-(4-methylphenyl)propan-1-one] | 80.5% |
| COc1ccc(C=C(C#N)C(=O)Nc2ccccc2)cc1 [8-A05, 2-cyano-3-(4-methoxyphenyl)-N-phenylprop-2-enamide] | 76.8% |
| O=C(CCl)NCC(=O)N(c1ccccc1)c1ccccc1 [7-B12, 2-chloro-N-[(diphenylcarbamoyl)methyl]acetamide] | 1.21% |
| C=CC(=O)Nc1ccc2c(c1)OCCCO2 [1-G20, N-(3,4-dihydro-2H-1,5-benzodioxepin-7-yl)prop-2-enamide] | 115% |
| CC(Cl)C(=O)NC(C)c1nnc2n1CCCC2 (centres unmarked) [6-H13, 2-chloro-N-(1-{5H,6H,7H,8H-[1,2,4]triazolo[4,3-a]pyridin-3-yl}ethyl)propanamide] | 105% |
| CC(C)c1ccc(CC(=O)CCl)cc1 [10-I17, 1-chloro-3-[4-(propan-2-yl)phenyl]propan-2-one] | 73.5% |
| CC(Cl)C(=O)Nc1ccc(Cc2nnc3ncccn23)cc1 (centres unmarked) [7-O22, 2-chloro-N-[4-({[1,2,4]triazolo[4,3-a]pyrimidin-3-yl}methyl)phenyl]propanamide] | 74.1% |
| CC(Cl)C(=O)Nc1ccc(F)cc1 (centres unmarked) [6-K15, 2-chloro-N-(4-fluorophenyl)propanamide] | 113% |
| C=CC(=O)NC(CO)c1ccnn1C (centres unmarked) [2-D17, N-[2-hydroxy-1-(1-methyl-1H-pyrazol-5-yl)ethyl]prop-2-enamide] | 45.9% |
| N#CC(=Cc1c[nH]c2ccccc12)C(=O)Nc1ccc2c(c1)OCCO2 [9-B07, 2-cyano-N-(2,3-dihydro-1,4-benzodioxin-6-yl)-3-(1H-indol-3-yl)prop-2-enamide] | 101% |
| Cc1ccc(C=C(C#N)C(=O)Nc2ccc(C(=O)O)cc2)o1 [8-C14, 4-[2-cyano-3-(5-methylfuran-2-yl)prop-2-enamido]benzoic acid] | 109% |
| O=C1C=CC(=O)N1CCc1ccccc1F [10-G03, 1-[2-(2-fluorophenyl)ethyl]-2,5-dihydro-1H-pyrrole-2,5-dione] | 11.2% |
| C=CC(=O)N1CCCC(n2cncn2)C1 (centres unmarked) [2-C03, 1-[3-(1H-1,2,4-triazol-1-yl)piperidin-1-yl]prop-2-en-1-one] | 90.2% |

| SMILES | viability at 48 h, 25 µM |
| --- | --- |
| C=CC(=O)N1CCC(C(=O)N2CCC(Cc3ncon3)CC2)CC1 [2-J06, 1-(4-{4-[(1,2,4-oxadiazol-3-yl)methyl]piperidine-1-carbonyl}piperidin-1-yl)prop-2-en-1-one] | 74.2% |
| C=CC(=O)NCc1ccc(F)c(F)c1 [1-C10, N-[(3,4-difluorophenyl)methyl]prop-2-enamide] | 49.1% |
| C=CC(=O)N1CCC(C(=O)NC(C)(C)CSC)CC1 [3-M14, N-[2-methyl-1-(methylsulfanyl)propan-2-yl]-1-(prop-2-enoyl)piperidine-4-carboxamide] | 153% |
| CCC(C)c1ccccc1NC(=O)C(C)Cl (centres unmarked) [4-O10, N-[2-(butan-2-yl)phenyl]-2-chloropropanamide] | 85.1% |
| CC(Cl)C(=O)N1CCC(NS(=O)(=O)c2cccs2)CC1 (centres unmarked) [7-L07, N-[1-(2-chloropropanoyl)piperidin-4-yl]thiophene-2-sulfonamide] | 99.7% |
| O=C(CCl)c1cc(Cl)ccc1Cl [10-E16, 2-chloro-1-(2,5-dichlorophenyl)ethan-1-one] | 4.26% |
| CC(C1CC1)N(C(=O)CCl)C1CC1 (centres unmarked) [5-F12, 2-chloro-N-cyclopropyl-N-(1-cyclopropylethyl)acetamide] | 1.06% |
| C=CC(=O)N1CCC(C(=O)N2CCC(NC(=O)NC)CC2)CC1 [2-H18, 3-methyl-1-{1-[1-(prop-2-enoyl)piperidine-4-carbonyl]piperidin-4-yl}urea] | 83% |
| CC(C)n1ccnc1C(=O)CCl [10-H10, 2-chloro-1-[1-(propan-2-yl)-1H-imidazol-2-yl]ethan-1-one] | 20.4% |
| COc1ccc(CNC(=O)C(C)Cl)cc1 (centres unmarked) [5-J18, 2-chloro-N-[(4-methoxyphenyl)methyl]propanamide] | 98.5% |
| C=CC(=O)NC1C(=O)OCC1(C)C (centres unmarked) [1-E08, N-(4,4-dimethyl-2-oxooxolan-3-yl)prop-2-enamide] | 83.7% |
| C=CC(=O)N1CCC(C(=O)Nc2ccc3c(c2)CCN3C(N)=O)CC1 [3-E16, 5-[1-(prop-2-enoyl)piperidine-4-amido]-2,3-dihydro-1H-indole-1-carboxamide] | 101% |
| C=CC(=O)Nc1ccc(-c2nnnn2C)cc1 [2-F18, N-[4-(1-methyl-1H-1,2,3,4-tetrazol-5-yl)phenyl]prop-2-enamide] | 95.5% |
| Cc1ccccc1NC(=O)C(C#N)=Cc1cc(C)n(C2CC2)c1C [8-A16, 2-cyano-3-(1-cyclopropyl-2,5-dimethyl-1H-pyrrol-3-yl)-N-(2-methylphenyl)prop-2-enamide] | 47.1% |
| CC(C)NC(=O)C(C#N)=Cc1ccccc1OC(C)C [9-C15, 2-cyano-N-(propan-2-yl)-3-[2-(propan-2-yloxy)phenyl]prop-2-enamide] | 112% |
| C=CC(=O)N1CCC(NC(C)=O)(c2noc(C)n2)C1 (centres unmarked) [2-G16, N-[3-(5-methyl-1,2,4-oxadiazol-3-yl)-1-(prop-2-enoyl)pyrrolidin-3-yl]acetamide] | 94.8% |
| C=CC(=O)N1CCC(C(=O)NC2(CO)CCSCC2)CC1 [3-H07, N-[4-(hydroxymethyl)thian-4-yl]-1-(prop-2-enoyl)piperidine-4-carboxamide] | 67.5% |
| Cc1c(Cl)cccc1NC(=O)C(C)Cl (centres unmarked) [6-I10, 2-chloro-N-(3-chloro-2-methylphenyl)propanamide] | 110% |
| C=CC(=O)NCc1nc(-c2ccc(F)cc2)n[nH]1 [3-D04, N-{[3-(4-fluorophenyl)-1H-1,2,4-triazol-5-yl]methyl}prop-2-enamide] | 95.1% |
| Cc1ccc2nc(-c3ccc(N4C(=O)C=CC4=O)cc3)sc2c1 [10-K18, 1-[4-(6-methyl-1,3-benzothiazol-2-yl)phenyl]-2,5-dihydro-1H-pyrrole-2,5-dione] | 107% |
| CC(Cl)C(=O)NCc1cnc(N2CCOCC2)s1 (centres unmarked) [6-P05, 2-chloro-N-{[2-(morpholin-4-yl)-1,3-thiazol-5-yl]methyl}propanamide] | 116% |
| COc1cccc(NC(=O)C(C#N)=Cc2ccc(C#N)cc2)c1 [8-G18, 2-cyano-3-(4-cyanophenyl)-N-(3-methoxyphenyl)prop-2-enamide] | 60.2% |
| C=CCNC(=O)C(C#N)=Cc1cccc2ccccc12 [9-L10, 2-cyano-3-(naphthalen-1-yl)-N-(prop-2-en-1-yl)prop-2-enamide] | 96.5% |
| C=CC(=O)N(C)CC(=O)NC1CCCN(c2ccc(F)cc2F)C1=O (centres unmarked) [2-P22, N-({[1-(2,4-difluorophenyl)-2-oxopiperidin-3-yl]carbamoyl}methyl)-N-methylprop-2-enamide] | 24.4% |
| N#CC(=Cc1cccc2ccccc12)C(=O)Nc1ccccc1Cl [8-K11, N-(2-chlorophenyl)-2-cyano-3-(naphthalen-1-yl)prop-2-enamide] | 80.5% |
| C=CC(=O)N[C@H](C)c1ccccc1OC(C)C [3-N16, N-[(1R)-1-[2-(propan-2-yloxy)phenyl]ethyl]prop-2-enamide] | 82.5% |
